These results are taken from patent publication US6653303B1, “Cycloalkyl, lactam, lactone and related compounds, pharmaceutical compositions comprising same, and methods for inhibiting β-amyloid peptide release and/or its synthesis by use of such compounds” (Athena Neurosciences, Inc., priority 1996, dated 2003).

Molecule `CC(C)N1C(=O)C(NC(=O)[C@H](C)NC(=O)Cc2cc(F)cc(F)c2)C(=O)N(C(C)C)c2ccccc21` [Example 8-146, 3-[N′-(3,5-Difluorophenylacetyl)-L-alaninyl]amino-2,4-dioxo-1,5-bis-(1-methylethyl)-2,3,4,5-tetrahydro-1H-1,5-benzodiazepine] yielded a melting point of 232 to 233 °C.
The figure for `C[C@H](NC(=O)Cc1cc(F)cc(F)c1)C(=O)N[C@H]1COc2ccccc2N(C)C1=O` [Example 6-10, 3-(S)-(N′-(3,5-Difluorophenylacetyl)-L-alaninyl)amino-1-methyl-5-oxa-1,3,4,5-tetrahydro-2H-1-benzazepin-2-one] is 110 to 114 °C; for `C[C@H](NC(=O)Cc1cc(F)cc(F)c1)C(=O)NC1C(=O)N(C)Cc2ccccc21` (stereo partly drawn) [Example 5-14, 4-(N′-(3,5-Difluorophenylacetyl)-L-alaninyl)amino-2-methyl-1,2,3,4-tetrahydroisoquinolin-3-one] it is 174 to 175 °C.
The figure for `C[C@H](NC(=O)C(O)c1cc(F)cc(F)c1)C(=O)NC1C(=O)N(C)c2ccccc2N(c2ccccc2)C1=O` (single isomer, unassigned) is 255 to 256 °C; for `C[C@H](NC(=O)Cc1cc(F)cc(F)c1)C(=O)NC1C(=O)N(Cc2ccccc2)Cc2ccccc21` (stereo partly drawn) [Example 5-8, 4-(N′-(3,5-Difluorophenylacetyl)-L-alaninyl)amino-2-benzyl-1,2,3,4-tetrahydroisoquinolin-3-one] it is 144 to 145 °C.
The value for `C[C@H](NC(=O)Cc1cc(F)cc(F)c1)C(=O)NC1C(=O)NC(c2cccnc2)c2ccccc21` (stereo partly drawn) [Example 5-38, 4-(N′-(3,5-Difluorophenylacetyl)-L-alaninyl)amino-1-(pyrid-3-yl)-1,2,3,4-tetrahydroisoquinolin-3-one] was 100 to 120 °C; that for `CCN1C(=O)C(NC(=O)[C@H](C)NC(=O)Cc2cc(F)cc(F)c2)N=C(c2ccccc2)c2ccccc21` (some centres unmarked) was 155 to 158 °C.
The molecule `C[C@H](NC(=O)C(F)c1cc(F)cc(F)c1)C(=O)NC1N=C(c2ccccc2)c2ccccc2N(C)C1=O` (single isomer, unassigned) had a melting point of 119 to 120 °C.
The figure for `C[C@H](NC(=O)Cc1cc(F)cc(F)c1)C(=O)NC1C(=O)NCc2cc(-c3ccccc3)ccc21` (stereo partly drawn) [Example 5-16, 4-(N′-(3,5-Difluorophenylacetyl)-L-alaninyl)amino-7-phenyl-1,2,3,4-tetrahydroisoquinolin-3-one] is > 240 °C (dec.); for `C[C@H](NC(=O)C(O)c1cc(F)cc(F)c1)C(=O)NC1N=C(c2ccccc2)c2ccccc2N(C)C1=O` (single isomer, unassigned) it is 240 to 241 °C; for `CN1C(=O)C(NC(=O)[C@@H](NC(=O)Cc2cc(F)cc(F)c2)C(C)(C)C)N=C(c2ccccc2)c2ccccc21` (some centres unmarked) it is 221 to 222 °C.
The value for `C[C@H](NC(=O)C(O)C1CCCC1)C(=O)NC1C(=O)N(CC(C)(C)C)c2ccccc2N(CC(C)(C)C)C1=O` (stereo partly drawn) [Example 8-162, 3-[N′-(Cyclopentyl-α-hydroxyacetyl)-L-alaninyl]amino-2,4-dioxo-1,5-bis-(2,2-dimethylpropyl)-2,3,4,5-tetrahydro-1H-1,5-benzodiazepine] was 119 to 129 °C; that for `C[C@H](NC(=O)Cc1cc(F)cc(F)c1)C(=O)NC1C(=O)NC(c2ccccc2)c2ccccc21` (single isomer, unassigned) [Example 5-10, 4-(N′-(3,5-Difluorophenylacetyl)-L-alaninyl)amino-1-phenyl-1,2,3,4tetrahydroisoquinolin-3-one] was 200 to 205 °C; that for `CC(C)COC(=O)[C@H](C)NC(=O)CC1=CCCCC1` [Example B72, N-[(Cyclohex-1-enyl)acetyl]-L-alanine iso-Butyl Ester] was 49 to 51 °C.
The figure for `C[C@H](NC(=O)Cc1cc(F)cc(F)c1)C(=O)NC1C(=O)NC(c2ccccn2)c2ccccc21` (stereo partly drawn) [Example 5-37, 4-(N′-(3,5-Difluorophenylacetyl)-L-alaninyl)amino-1-(pyrid-2-yl)-1,2,3,4-tetrahydroisoquinolin-3-one] is 100 °C; for `CC1NC(=O)C(NC(=O)[C@H](C)NC(=O)Cc2cc(F)cc(F)c2)c2ccccc21` (stereo partly drawn) [Example 5-9, 4-(N′-(3,5-Difluorophenylacetyl)-L-alaninyl)amino-1-methyl-1,2,3,4-tetrahydroisoquinolin-3-one] it is 205 to 206 °C; for `CC(C)CN1C(=O)C(NC(=O)[C@H](C)NC(=O)Cc2cc(F)cc(F)c2)C(=O)N(CC(C)C)c2ccccc21` [Example 8-152, 3-[N′-(3,5-Difluorophenylacetyl)-L-alaninyl]amino-2,4-dioxo-1,5-bis-(2-methylpropyl)-2,3,4,5-tetrahydro-1H-1,5-benzodiazepine] it is 197 to 198 °C.
With `C[C@H](NC(=O)Cc1cc(F)cc(F)c1)C(=O)NC1CCCCCNC(=O)C1` (stereo partly drawn) [Example 5-33, 3-(N′-(3,5-Difluorophenylacetyl)-L-alaninyl)amino-8-octanelactam], the melting point is more than 220 °C.
As for `CC(Nc1ccc(Cl)c(Cl)c1)C(=O)NC1CCCNC(=O)C1` (racemic) [Example 5-31, 3-(N′-(3,4-Dichlorophenyl)-D,L-alaninyl)amino-ε-caprolactam], the melting point amounted to 199 °C.
The value for `CCC(=S)N[C@@H](C)C(=O)NC1N=C(c2ccccc2)c2ccccc2N(C)C1=O` (some centres unmarked) was 205 to 206 °C; that for `C[C@H](NC(=O)Cc1cc(F)cc(F)c1)C(=O)NC1C(=O)N(CCc2ccccc2)Cc2ccccc21` (stereo partly drawn) [Example 5-13, 4-(N′-(3,5-Difluorophenylacetyl)-L-alaninyl)amino-2-phenethyl-1,2,3,4-tetrahydroisoquinolin-3-one] was 75 to 76 °C.
Turning to `C[C@H](NC(=O)Cc1cc(F)cc(F)c1)C(=O)NC1C(=O)NCc2cc(Cc3ccccc3)ccc21` (stereo partly drawn) [Example 5-34, 4-(N′-(3,5-Difluorophenylacetyl)-L-alaninyl)amino-7-benzyl-1,2,3,4-tetrahydroisoquinolin-3-one], the melting point was 159 to 166 °C.
The value for `C[C@H](NC(=O)Cc1ccccc1)C(=O)NC1CCCNC(=O)C1` (stereo partly drawn) [Example 5-18, 3-(N′-(Phenylacetyl)-L-alaninyl)amino-ε-caprolactam] was 200 to 202 °C; that for `CCOC(=O)[C@H](C)NC(=O)Cc1cc(F)cc(F)c1` [Example B64, N-[(3,5-Difluorophenyl)acetyl]alanine Ethyl Ester] was 93 to 95 °C; that for `CN1C(=O)C(NC(=O)Cc2cc(F)cc(F)c2)N=C(c2ccccc2)c2ccccc21` (centres unmarked) was 236 to 239 °C.
The value for `C[C@H](NC(=O)Cc1cc(F)cc(F)c1)C(=O)NC1C(=O)NC(Cc2ccccc2)c2ccccc21` (stereo partly drawn) [Example 5-35, 4-(N′-(3,5-Difluorophenylacetyl)-L-alaninyl)amino-1-benzyl-1,2,3,4-tetrahydroisoquinolin-3-one] was 106 to 107 °C.
The figure for `C[C@H](NC(=O)Cc1cc(F)cc(F)c1)C(=O)NC1C(=O)NCc2ccccc21` (stereo partly drawn) [Example 5-7, 4-(N′-(3,5-Difluorophenylacetyl)-L-alaninyl)amino-1,2,3,4-tetrahydroisoquinolin-3-one] is 243 to 244 °C.
The molecule `C[C@H](NC(=O)Cc1cc(F)cc(F)c1)C(=O)NC1C(=O)NC(c2ccncc2)c2ccccc21` (stereo partly drawn) [Example 5-39, 4-(N′-(3,5-Difluorophenylacetyl)-L-alaninyl)amino-1-(pyrid-4-yl)-1,2,3,4-tetrahydroisoquinolin-3-one] registered a melting point of 100 °C.
Consider `CC1CC(NC(=O)Cc2cc(F)cc(F)c2)C(=O)N(C)c2ccccc21` (centres unmarked) [Example 6-9, 3-(3,5-Difluorophenylacetyl)amino-1,5-dimethyl-1,3,4,5-tetrahydro-2H-1-benzazepin-2-one], for which the melting point was in the range of 185 to 187 °C.
`C[C@H](NC(=O)Cc1cc(F)cc(F)c1)C(=O)NC1C(=O)NCc2cc(F)ccc21` (single isomer, unassigned) [Example 5-12, 4(N′-(3,5-Difluorophenylacetyl)-L-alaninyl)amino-7-fluoro-1,2,3,4tetrahydroisoquinolin-3-one] registered a melting point of 195 to 200 °C.
Turning to `C[C@H](NC(=O)Cc1cc(F)cc(F)c1)C(=O)NC1N=C(c2ccccc2)c2ccccc2N(CC2CC2)C1=O` (some centres unmarked), the melting point was 203 to 205 °C.
The figure for `CCN1C(=O)[C@@H](NC(=O)[C@H](C)NC(=O)Cc2cc(F)cc(F)c2)COc2ccccc21` [Example 6-11, 3-(S)-(N′-(3,5-Difluorophenylacetyl)-L-alaninyl)amino-1-ethyl-5-oxa-1,3,4,5-tetrahydro-2H-1-benzazepin-2-one] is 188 to 191 °C; for `C[C@H](NC(=O)Cc1cc(F)cc(F)c1)C(=O)N[C@@H]1CSc2ccccc2N(C)C1=O` [Example 6-12, 3-(S)-(N′-(3,5-Difluorophenylacetyl)-L-alaninyl)amino-1-methyl-5-thia-1,3,4,5-tetrahydro-2H-1-benzazepin-2-one] it is 156 to 159 °C.
In turn, `CC(C)COC(=O)[C@H](C)NC(=O)CC1CCCC1` [Example B71, N-(Cyclopentylacetyl)-L-alanine iso-Butyl Ester] yielded a melting point of 62 to 64 °C.
The figure for `CC(C)[C@H](NC(=O)Cc1cc(F)cc(F)c1)C(=O)NC1N=C(c2ccccc2)c2ccccc2N(C)C1=O` (some centres unmarked) is 228 to 229 °C.
The molecule `CC1CC(NC(=O)[C@H](C)NC(=O)Cc2cc(F)cc(F)c2)C(=O)N(C)c2ccccc21` (stereo partly drawn) [Example 6-8, 3-(N′-(3,5-Difluorophenylacetyl)-L-alaninyl)amino-1,5-dimethyl-1,3,4,5-tetrahydro-2H-1-benzazepin-2-one] gave a melting point of 115 to 119 °C.
The value for `C[C@H](NC(=O)Cc1cc(F)cc(F)c1)C(=O)NC1Cc2ccccc2N(Cc2ccccc2)C1=O` (stereo partly drawn) [Example 5-6, 1-Benzyl-3-(N′-(3,5-difluorophenylacetyl)-L-alaninyl)amino-1,2,3,4-tetrahydroquinolin-2-one] was 196 to 199 °C; that for `CC(C)COC(=O)[C@H](C)NC(=O)CC1CCCCC1` [Example B70, N-(Cyclohexylacetyl)-L-alanine iso-Butyl Ester] was 92 to 93 °C.

In general, melting point refers to the temperature of the solid-liquid transition.
